# Laboratory results: patent publication US7550613B2, “Compounds” (Pronova Biopharma Norge AS, priority 2005, dated 2009)
# Where two headings read alike, the source gives them in different places.
# Experiments:
# [1] = Body weight and food consumption during 2 weeks of diet intervention after 8 weeks of HF diet; format: in vivo, adipose prone mice of the C57BL/6J strain; conditions: FIG. 10; last 2 weeks of experimental diets after 8 weeks HF diet; PRBs 1.5% of fat content, rosiglitazone 100 mg/KG diet
# Procedure: The animals (n=8 in each group) were fed high fat diet (fat constituting 60% of total calories, the same diet as used in Block 5) for 8 weeks. Thereafter they were given the PRBs in a dose of 1.5% of the fat content of the diet for another two weeks. The rosiglitazone group was given an amount of 100 mg/KG diet. The control groups continued with either only high fat diet or standard chow.
# PPARα receptor = target: T1, PPARα receptor (Rattus norvegicus, UniProt P37230); conditions: rat liver cells (Pawar & Jump 2003); cited from earlier work
# T1 construct: host or cells: rat liver cells
# T1 sequence (P37230 1-468): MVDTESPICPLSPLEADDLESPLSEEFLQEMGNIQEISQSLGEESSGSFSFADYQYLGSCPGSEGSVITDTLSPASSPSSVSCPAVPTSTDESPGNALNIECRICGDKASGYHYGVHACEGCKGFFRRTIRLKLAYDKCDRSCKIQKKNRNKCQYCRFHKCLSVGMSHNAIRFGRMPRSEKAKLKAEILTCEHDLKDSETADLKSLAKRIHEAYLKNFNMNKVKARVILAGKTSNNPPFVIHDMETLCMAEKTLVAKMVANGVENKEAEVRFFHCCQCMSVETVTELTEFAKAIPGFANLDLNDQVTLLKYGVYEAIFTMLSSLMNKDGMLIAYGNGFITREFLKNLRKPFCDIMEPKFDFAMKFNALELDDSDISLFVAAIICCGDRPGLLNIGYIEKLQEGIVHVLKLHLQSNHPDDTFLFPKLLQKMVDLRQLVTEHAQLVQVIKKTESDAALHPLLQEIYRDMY
# [2] = Vaagenes 1999; cited from earlier work
# [3] = Effect of DHA derivatives in adipose prone mice during 4 months of dietary interventions (Example 5a); format: in vivo, male C57BL/6 mice; parameters: AUC: unit not given beside the values; conditions: for Insulin: plasma
# Procedure: All experiments were performed on male C57BL/6 mice, either a substrain C57BL/N (supplier: Charles River, Germany, n=160, experiments A-C, see below), or a substrain C57BL/6J (supplier: the Jackson laboratory, Bar Harbor, Me., USA, n=32, experiment D). Total numbers of animals used were higher (n=170 and 36, respectively), because of culling. In the latter case, animals were bred for several generations (<20) at the Institute of Physiology. At the beginning of the treatment, animals were 14-week-old and their body weight range was 23.6-27.1 g. One week before the study start, animals were sorted according to their body weight and assigned to subgroups (n=8) of similar mean body weight. This method allowed for culling of about 5-10% of animals showing the lowest and highest body weight, respectively. The animals eliminated from the study at this stage were sacrificed by cervical dislocation. Complete health check of mice was performed by the supplier Charles River and at the start of study serological tests were performed by ANLAB (Prague, Czech Republic). In addition, regular health checks were performed in the animal house in 3-mo-intervals using sentinel mice and serological examinations (ANLAB). In all the tests, the animals were free of specific pathogens.
# • (i) Chow diet (ssniff R/M-H from SSNIFF Spezialdieten Gmbh, Soest, Germany; see also http://ssniff.de) with protein, fat and carbohydrate forming 33, 9, and 58 energy %, respectively • (ii) High-fat diet prepared in the laboratory (cHF diet) with protein, fat and carbohydrate forming 15, 59, and 26 energy %, respectively, and well characterized fatty acid composition (with most of the lipids coming from corn oil; see Ruzickova 2004) • (iii) cHF diets in which 0.15, 0.5, and 1.5% of fat (specifically the corn oil constituent) was replaced by various PRB-compounds, namely PRB1, PRB2, PRB5, PRB7, and PRB8, or by DHA. All these compounds were in the form of ethyl esters, provided by Pronova Biocare a.s. in sealed containers. Chemical composition of the PRB-compounds was unknown to the laboratory performing the experiments (Institute of Physiology, Academy of Sciences Prague, Czech Republic).
# The study was based on 4 individual experiments. In each of the experiments, different PRB-compounds (or DHA, respectively) admixed to cHF diet in three different concentrations (0.15, 0.5, and 1.5% of the fat content) were tested. In each experiment, a subgroup of plain cHF diet-fed mice was included and served as a control. Mice were caged in groups of 4 and fed standard chow diet until 3 mo of age, when animals (n=8-13) were randomly assigned to the different test diets. After 2 mo on this new diet (at 5 mo of age), animals were fasted overnight and in the morning, intraperitoneal Glucose Tolerance Test (GTT) was performed. Animals were sacrificed after 4 months on the experimental diets, at 7 mo of age, and the end-point analysis were performed.
# PPARγ = target: T2, PPARγ (Homo sapiens, UniProt P37231); test: Affinity testing in transfected cells (release of luciferase); format: cell-based; conditions: FIG. 8; 10 μM of PRBs
# T2 construct: For full length PPAR transfection studies, each well received 5 μg reporter construct; expressed in transfected cells; host or cells: COS-1 cells
# T2 sequence (P37231 1-505): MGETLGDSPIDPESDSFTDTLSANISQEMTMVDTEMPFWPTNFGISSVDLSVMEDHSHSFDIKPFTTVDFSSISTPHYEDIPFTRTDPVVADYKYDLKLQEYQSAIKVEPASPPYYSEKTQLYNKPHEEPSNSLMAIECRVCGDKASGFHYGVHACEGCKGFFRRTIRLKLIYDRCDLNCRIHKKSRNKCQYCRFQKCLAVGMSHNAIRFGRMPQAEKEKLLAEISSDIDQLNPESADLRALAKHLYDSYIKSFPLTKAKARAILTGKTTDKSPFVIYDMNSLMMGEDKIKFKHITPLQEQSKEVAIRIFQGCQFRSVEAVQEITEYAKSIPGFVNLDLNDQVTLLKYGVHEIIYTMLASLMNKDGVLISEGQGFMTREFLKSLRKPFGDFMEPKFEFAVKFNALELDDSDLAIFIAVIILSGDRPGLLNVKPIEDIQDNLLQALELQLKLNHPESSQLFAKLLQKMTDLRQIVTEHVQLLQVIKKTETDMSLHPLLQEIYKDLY
# Procedure: Release of luciferase is correlated to transcription of genes. Binding of a ligand to a nuclear receptor such as PPARγ induces transcription of the respective gene thereby releasing luciferase. This technique therefore provides a measure of ligand affinity to the receptor as well as activation of the responsible gene.
# Transient transfection of COS-1 cells was performed in 6-well plates as described by Graham and van der Eb (Graham). For full length PPAR transfection studies, each well received 5 μg reporter construct, 2.5 μg pSV-β-galactosidase as an internal control, 0.4 μg pSG5-PPARγ2. The cells were harvested after 72 h, and the luciferase activity was measured according to the protocol (Promega). The luciferase activity was normalised against β-galactosidase activity. The adipocytes were transfected at D11 of differentiation using 16 μl LipofectaminPlus reagent, 4 μl Lipofectamine (Life Technologies Inc.), 0.2 μg pSG5-PPARγ, and 100 ng pTK Renilla luciferase as control of transfection afficiency. […] The luciferase activities were measured as recommended by the manufacturer (Dual Luciferase assay, Promega). […]
# Fatty acids (BRL or DHA) and PRBs (stock solutions) were solubilized to 0.1 M final concentration in DMSO. […] Luciferase activity was measured using a luminometer (TD-20/20 luminometer; Turner Designs, Sunnycvale, Calif.) and normalized against protein content.
# PPARα = target: T3, PPARα (Homo sapiens, UniProt Q07869); conditions: Larsen 2005; cited from earlier work
# T3 sequence (Q07869 1-468): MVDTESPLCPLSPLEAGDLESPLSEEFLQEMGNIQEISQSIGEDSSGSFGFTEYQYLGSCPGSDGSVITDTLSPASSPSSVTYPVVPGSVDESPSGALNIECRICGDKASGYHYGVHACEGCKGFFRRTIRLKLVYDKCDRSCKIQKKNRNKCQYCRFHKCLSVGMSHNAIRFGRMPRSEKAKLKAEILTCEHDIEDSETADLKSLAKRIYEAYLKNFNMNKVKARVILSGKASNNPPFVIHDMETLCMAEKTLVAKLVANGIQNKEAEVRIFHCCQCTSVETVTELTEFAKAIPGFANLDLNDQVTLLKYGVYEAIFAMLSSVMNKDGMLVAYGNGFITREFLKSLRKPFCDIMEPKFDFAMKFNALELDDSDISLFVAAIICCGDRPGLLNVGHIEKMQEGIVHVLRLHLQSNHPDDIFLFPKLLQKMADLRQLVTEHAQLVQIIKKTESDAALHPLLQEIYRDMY
# [4] = Larsen 1998; cited from earlier work
# platelet aggregation [5] = conditions: in vivo (Willumsen 1998); cited from earlier work
# platelet aggregation [6] = conditions: in vitro (Larsen 1998); cited from earlier work
compound,measurement,setting,value
"CC/C=C\C/C=C\C/C=C\C/C=C\C/C=C\C/C=C\CCC(=O)O [DHA, (all-Z)-4,7,10,13,16,19-docosahexaenoic acid]",change of body weight,[1],completely stopped the weight gain and even led to reduction of body weight
same,binding capacity to the PPARα receptor,PPARα receptor,highest binding capacity
CC/C=C\C/C=C\C/C=C\C/C=C\C/C=C\CCCC(=O)OCC [EPA EE],plasma free fatty acid,[2],had no effect
"CC/C=C\C/C=C\C/C=C\C/C=C\C/C=C\CCCC(=O)O [EPA, (all-Z)-5,8,11,14,17-eicosapentaenoic acid]",binding capacity to the PPARα receptor,PPARα receptor,highest binding capacity
"CC/C=C\C/C=C\C/C=C\C/C=C\C/C=C\C/C=C\CC(C)C(=O)OCC (stereo not drawn) [PRB-1, α-methyl docosahexaenoic acid ethyl ester]",Body wt. gain,"[3]; 4 months, 0.15% concentration",22.9 ± 1.1 grams
same,AUCglucose,"[3]; intraperitoneal glucose tolerance test, 1.5% concentration",913 ± 68 mM × 180 min
same,Insulin,"[3]; 4 months, 0.15% concentration",3.50 ± 0.29 ng/mL
same,Insulin,"[3]; 4 months, 1.5% concentration",2.73 ± 0.33 ng/mL
"CC/C=C\C/C=C\C/C=C\C/C=C\C/C=C\C/C=C\CC(SC)C(=O)OCC (stereo not drawn) [PRB-6, α-tiomethyl docosahexaenoic acid ethyl ester]",release of luciferase from transfected cells,PPARγ,significantly higher release of luciferase
"CC/C=C\C/C=C\C/C=C\C/C=C\C/C=C\C/C=C\CC(CC)(CC)C(=O)OCC [PRB-8, α,α di-ethyl docosahexaenoic acid ethyl ester]",body weight (BW),"[3]; 2 months intervention, 1.5%, controls 29.6±0.9",28.0±0.7 grams
same,AUC,"[3]; 2 months intervention, 1.5%, controls 1074±91",1031±104
CC/C=C\C/C=C\C/C=C\C/C=C\C/C=C\CCC(CC)C(=O)O (stereo not drawn) [α-ethyl EPA],activation of the nuclear receptor PPARα,PPARα,equal strength as α-methyl EPA
CC/C=C\C/C=C\C/C=C\C/C=C\C/C=C\CCC(C)C(=O)O (stereo not drawn) [α-methyl EPA],incorporation into phospholipids and triglycerids,[4],is incorporated into phospholipids and triglycerids
same,inhibition of platelet aggregation,platelet aggregation [5],stronger inhibitor of platelet aggregation than EPA
same,inhibition of platelet aggregation,platelet aggregation [6],stronger inhibitor of platelet aggregation than EPA
CC/C=C\C/C=C\C/C=C\C/C=C\C/C=C\CC(C)CC(=O)O (stereo not drawn) [β-methyl EPA],incorporation into phospholipids and triglycerids,[4],is incorporated into phospholipids and triglycerids
